These results are taken from patent US10421756B2, “Heterobicyclic N-aminophenyl-amides as inhibitors of histone deacetylase” (Rodin Therapeutics, Inc., priority 2015, dated 2019).

As a reminder, the Kd is the concentration at which binding is half-saturated.

Holding throughout (type): binding
The target of experiment [1] is T1, HDAC2 (Homo sapiens (Human), UniProt Q92769). The experiment in a line: Reporter displacement assay (HDAC2). The following applies: reporter probe displacement, Cheng Prusoff. How it is done: HDAC2 containing a C-terminal HIS-Tag (Proteros) and fluorescently-labeled anti-HIS-antibody are diluted in one vial in assay buffer 50 mM Tris, pH 8.0, 1 mM DTT, 150 mM NaCl, and 0.01% Tween20. Components are pre-incubated for 30 min, then a small volume of reporter probe (Proteros) is added from a highly concentrated stock and incubation is continued for another 30 min. Final concentrations after adding the reporter probe amount to 20 nM HDAC2, 4 nM antibody, and 180 nM probe.
Ten μl/well of pre-formed complex are transferred into 384 well assay plates (Corning). Compounds to be profiled are serially diluted from […] in DMSO and 60 nl are added to assay plates by pintool transfer (CybiWell, Cybio). Fluorescence intensity signal is read after 4 h in a Pherastar FS (BMG Labtech) at 337/665 nm.
For Kd determination, percent probe displacement values are calculated for each compound concentration and plotted against the compound concentration. IC50-like values (corresponding to 50% probe displacement) are calculated using standard fitting algorithms. Since the reporter probe is used at a concentration reflecting its own Kd value, compound Kd values can be calculated according to the Cheng Prusoff equation.
In the table, “A” indicates a Kd value of less than 0.1 μM; “B” a Kd value of between 0.1 μM and 0.5 μM; “C” a Kd value of greater than 0.5 μM and less than or equal to 5.0 μM; and “D” a Kd value of greater than 5.0 μM.

The target of experiment [2] is T1, HDAC2. The experiment in a line: Reporter displacement assay (HDAC2).
In experiment [3] the target is HDAC1 (Homo sapiens (Human), UniProt Q13547). The experiment in a line: Reporter displacement assay (HDAC1). The following applies: for Kd: reporter probe displacement, Cheng Prusoff. How it is done: [The procedure below names another target; the source lists this target under the same test.] HDAC2 containing a C-terminal HIS-Tag (Proteros) and fluorescently-labeled anti-HIS-antibody are diluted in one vial in assay buffer 50 mM Tris, pH 8.0, 1 mM DTT, 150 mM NaCl, and 0.01% Tween20. Components are pre-incubated for 30 min, then a small volume of reporter probe (Proteros) is added from a highly concentrated stock and incubation is continued for another 30 min.
Ten μl/well of pre-formed complex are transferred into 384 well assay plates (Corning). Compounds to be profiled are serially diluted from […] in DMSO and 60 nl are added to assay plates by pintool transfer (CybiWell, Cybio).
For Kd determination, percent probe displacement values are calculated for each compound concentration and plotted against the compound concentration. […] Since the reporter probe is used at a concentration reflecting its own Kd value, compound Kd values can be calculated according to the Cheng Prusoff equation.

HDAC1, sequence (Q13547 whole entry): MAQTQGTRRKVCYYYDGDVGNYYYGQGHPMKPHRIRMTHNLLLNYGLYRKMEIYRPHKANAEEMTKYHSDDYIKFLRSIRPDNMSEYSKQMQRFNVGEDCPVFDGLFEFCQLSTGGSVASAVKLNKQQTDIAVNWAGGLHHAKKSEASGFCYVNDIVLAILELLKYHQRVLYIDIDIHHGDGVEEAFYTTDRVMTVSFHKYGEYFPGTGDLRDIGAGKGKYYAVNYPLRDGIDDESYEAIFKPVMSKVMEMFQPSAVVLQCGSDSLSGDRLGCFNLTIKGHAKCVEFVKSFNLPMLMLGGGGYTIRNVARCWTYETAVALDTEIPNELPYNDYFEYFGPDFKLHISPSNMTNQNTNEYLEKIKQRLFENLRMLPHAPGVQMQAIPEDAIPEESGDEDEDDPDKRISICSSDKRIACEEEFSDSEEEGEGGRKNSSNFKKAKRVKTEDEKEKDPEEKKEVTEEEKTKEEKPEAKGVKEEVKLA
T1 sequence (Q92769 whole entry): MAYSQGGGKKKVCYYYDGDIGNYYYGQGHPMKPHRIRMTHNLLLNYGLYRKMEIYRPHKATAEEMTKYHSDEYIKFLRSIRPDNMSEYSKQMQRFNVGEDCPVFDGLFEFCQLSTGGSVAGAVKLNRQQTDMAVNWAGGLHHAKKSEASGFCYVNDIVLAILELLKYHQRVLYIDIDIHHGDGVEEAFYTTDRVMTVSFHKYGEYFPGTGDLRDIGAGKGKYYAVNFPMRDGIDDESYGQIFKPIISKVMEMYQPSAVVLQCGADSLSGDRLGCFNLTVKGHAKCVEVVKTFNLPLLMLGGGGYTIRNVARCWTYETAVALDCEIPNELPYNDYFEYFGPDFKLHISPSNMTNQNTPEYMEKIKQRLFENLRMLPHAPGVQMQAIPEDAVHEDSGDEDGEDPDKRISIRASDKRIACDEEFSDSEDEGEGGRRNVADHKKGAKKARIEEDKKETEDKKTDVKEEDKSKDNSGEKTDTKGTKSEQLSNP

`CC(C)(C)OC(=O)N1CCC2(CC1)CN(C(=O)Nc1cc(-c3ccc(F)cc3)ccc1N)C2` [Compound 166]: the Kd in experiment [1] and in experiment [3] was 500 to 5000 nM each time. The residence time in experiment [2] was found to be 521 min; in experiment [3], 84 min.

Take `Nc1ccc(-c2ccc(C(F)(F)F)cn2)cc1NC(=O)N1Cc2ccncc2C1` [Compound 167]: the Kd in experiment [1] and in experiment [3] was 500 to 5000 nM each time. Besides, the residence time in experiment [2] stood at 864 min; in experiment [3], 140 min.

With `Nc1ccc(-c2ccco2)cc1NC(=O)N1Cc2ccncc2C1` [Compound 168], the Kd in experiment [1] and in experiment [3] was < 100 nM each time. Also, the residence time in experiment [2] is 5570 min; in experiment [3], 1380 min.

`Nc1ccc(-c2ccc(F)cc2)cc1NC(=O)N1CC2(CCNCC2)C1` [Compound 169]: the Kd in experiment [1] and in experiment [3] was 500 to 5000 nM throughout. The residence time in experiment [2] was 716 min; in experiment [3], 120 min.

In the case of `Nc1ccc(-c2ccc(F)cc2)cc1NC(=O)N1CC2CCNCC2C1` (stereo not shown) [Compound 170], the Kd in experiment [1] and in experiment [3] was 500 to 5000 nM throughout. The residence time in experiment [2] is 2160 min; in experiment [3], 342 min.

As for `CC(C)(C)OC(=O)N1CCC2CN(C(=O)Nc3cc(-c4ccc(F)cc4)ccc3N)CC2C1` (stereo not shown) [Compound 171], the Kd in experiment [1] and in experiment [3] was 100 to 500 nM throughout. For the same compound, the results for the residence time in experiment [2] and in experiment [3] were 1610 min and 765 min, respectively.

Regarding `Nc1ccc(-c2ccc(F)cc2)cc1NC(=O)N1CCC2(CCOCC2)C1` [Compound 172], the Kd in experiment [1] and in experiment [3] was 100 to 500 nM throughout. In addition, the residence time in experiment [2] was 987 min; in experiment [3] it was 299 min.

As to `Nc1ccc(-c2ccc(F)cc2)cc1NC(=O)N1CCC2(CCOC2)CC1` [Compound 173], the figures for the Kd in experiment [1] and in experiment [3] were 100 to 500 nM and < 100 nM, respectively. In addition, the residence time in experiment [2] came out at 1250 min; in experiment [3] it was 1210 min.

With `Nc1ccc(-c2ccncc2)cc1NC(=O)c1nc2c(s1)CCNC2` [Compound 174], the Kd in experiment [1] and in experiment [3] was < 100 nM throughout. Besides, the residence time in experiment [2] is 1940 min; in experiment [3] it was 1350 min.

For the compound `Nc1ccc(-c2ccc(F)cc2)cc1NC(=O)c1nc2c(s1)CCNC2` [Compound 175], the Kd in experiment [1] and in experiment [3] was < 100 nM in each case. The residence time is 2710 min in experiment [2] and 1170 min in experiment [3].
